Reference: patent US20170190671A1, “BIS(ARYL)CATECHOL DERIVATIVES AS HERBICIDES” (E I DU PONT DE NEMOURS AND COMPANY, priority 2014, published 2017)

Experiments:
Test in all cases: Test C postemergence
Type in all cases: in vivo
[1] = system: ragweed (common ragweed, Ambrosia elatior); conditions: Ambrosia artemisiifolia, post-emergence, 336 h, Postemergence, scale 0 to 100, read-out: Plant response rating, Ragweed
Method in brief: (§1)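 Greenhouse test; preemergence to seeds in loam/sand soil, or postemergence spray to 2-18 cm, 1- to 4-leaf plants in peat/vermiculite medium; compound in non-phytotoxic solvent plus surfactant. Visual rating vs controls at 13-15 d, 0 = no effect, 100 = complete control.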

[2] = system: large (Lg) crabgrass (Digitaria sanguinalis); conditions: Digitaria sanguinalis, post-emergence, 336 h, Postemergence, scale 0 to 100, read-out: Plant response rating, Crabgrass, Large
Method in brief: as §1

[3] = system: johnsongrass (Sorghum halepense); conditions: Sorghum halepense, post-emergence, 336 h, Postemergence, scale 0 to 100, read-out: Plant response rating, Johnsongrass
Method in brief: as §1

[4] = system: giant foxtail (Setaria faberii); conditions: Setaria faberi, post-emergence, 336 h, Postemergence, scale 0 to 100, read-out: Plant response rating, Foxtail, Giant
Method in brief: as §1

[5] = system: soybean (Glycine max); conditions: Glycine max, post-emergence, Postemergence, scale 0 to 100, read-out: Plant response rating, Soybean
Method in brief: as §1

[6] = system: corn (Zea mays); conditions: Zea mays, post-emergence, 336 h, Postemergence, scale 0 to 100
Method in brief: as §1

[7] = system: Italian ryegrass (Lolium multiflorum); conditions: Lolium multiflorum, post-emergence, 336 h, Postemergence, scale 0 to 100, read-out: Plant response rating, Ryegrass, Italian
Method in brief: as §1

[8] = system: velvetleaf (Abutilon theophrasti); conditions: Abutilon theophrasti, post-emergence, Postemergence, scale 0 to 100, read-out: Plant response rating, Velvetleaf
Method in brief: as §1

[9] = system: lambsquarters (Chenopodium album); conditions: Chenopodium album, post-emergence, 336 h, Postemergence, scale 0 to 100, read-out: Plant response rating, Lambsquarters
Method in brief: as §1

[10] = system: morningglory (Ipomoea coccinea); conditions: Ipomoea, post-emergence, 336 h, Postemergence, scale 0 to 100, read-out: Plant response rating, Morningglory
Method in brief: as §1

[11] = system: oilseed rape (Brassica napus); conditions: Brassica napus, post-emergence, Postemergence, scale 0 to 100, read-out: Plant response rating, Oilseed Rape
Method in brief: as §1

[12] = system: barnyardgrass (Echinochloa crus-galli); conditions: Echinochloa crus-galli, post-emergence, Postemergence, scale 0 to 100, read-out: Plant response rating, Barnyardgrass
Method in brief: as §1

[13] = system: winter wheat (Triticum aestivum); conditions: Triticum aestivum, post-emergence, 336 h, Postemergence, scale 0 to 100, read-out: Plant response rating, Wheat
Method in brief: as §1

[14] = system: blackgrass (Alopecurus myosuroides); conditions: Alopecurus myosuroides, post-emergence, 336 h, Postemergence, scale 0 to 100, read-out: Plant response rating, Blackgrass
Method in brief: as §1

N#Cc1cccc(Oc2ncc(Cl)cn2)c1Oc1ncc(Br)cn1 [Compound 4, 2-[(5-bromo-2-pyrimidinyl)oxy]-3-[(5-chloro-2-pyrimidinyl)oxy]benzonitrile]
pest or weed control at 31 g/ha ([1]; 31 g ai/ha): 50% | pest or weed control at 62 g/ha ([1]; 62 g ai/ha): 75% | pest or weed control at 125 g/ha ([1]; 125 g ai/ha): 85% | pest or weed control at 16 g/ha ([2]; 16 g ai/ha): 5% | pest or weed control at 31 g/ha ([2]; 31 g ai/ha): 5% | pest or weed control at 62 g/ha ([2]; 62 g ai/ha): 5% | pest or weed control at 125 g/ha ([2]; 125 g ai/ha): 10% | pest or weed control at 16 g/ha ([3]; 16 g ai/ha): 5% | pest or weed control at 31 g/ha ([3]; 31 g ai/ha): 5% | pest or weed control at 62 g/ha ([3]; 62 g ai/ha): 5% | pest or weed control at 125 g/ha ([3]; 125 g ai/ha): 5% | pest or weed control at 16 g/ha ([4]; 16 g ai/ha): 40% | pest or weed control at 31 g/ha ([4]; 31 g ai/ha): 40% | pest or weed control at 62 g/ha ([4]; 62 g ai/ha): 45% | pest or weed control at 125 g/ha ([4]; 125 g ai/ha): 35% | plant injury at 31 g/ha ([5]; 31 g ai/ha): 70% | plant injury at 62 g/ha ([5]; 62 g ai/ha): 70% | plant injury at 125 g/ha ([5]; 125 g ai/ha): 70% | Corn plant response rating (crop injury, 0 = no effect, 100 = complete kill) at 16 g/ha ([6]; 16 g ai/ha): 5% | Corn plant response rating (crop injury, 0 = no effect, 100 = complete kill) at 31 g/ha ([6]; 31 g ai/ha): 5% | Corn plant response rating (crop injury, 0 = no effect, 100 = complete kill) at 62 g/ha ([6]; 62 g ai/ha): 5% | Corn plant response rating (crop injury, 0 = no effect, 100 = complete kill) at 125 g/ha ([6]; 125 g ai/ha): 10% | pest or weed control at 31 g/ha ([7]; 31 g ai/ha): 0% | pest or weed control at 62 g/ha ([7]; 62 g ai/ha): 0% | pest or weed control at 125 g/ha ([7]; 125 g ai/ha): 5% | pest or weed control at 31 g/ha ([8]; 31 g ai/ha): 40% | pest or weed control at 62 g/ha ([8]; 62 g ai/ha): 50% | pest or weed control at 125 g/ha ([8]; 125 g ai/ha): 60% | pest or weed control at 16 g/ha ([9]; 16 g ai/ha): 30% | pest or weed control at 31 g/ha ([9]; 31 g ai/ha): 70% | pest or weed control at 62 g/ha ([9]; 62 g ai/ha): 80% | pest or weed control at 125 g/ha ([9]; 125 g ai/ha): 90% | pest or weed control at 31 g/ha ([10]; 31 g ai/ha): 80% | pest or weed control at 62 g/ha ([10]; 62 g ai/ha): 85% | pest or weed control at 125 g/ha ([10]; 125 g ai/ha): 95% | plant injury at 31 g/ha ([11]; 31 g ai/ha): 10% | plant injury at 62 g/ha ([11]; 62 g ai/ha): 45% | plant injury at 125 g/ha ([11]; 125 g ai/ha): 60% | pest or weed control at 16 g/ha ([12]; 16 g ai/ha): 5% | pest or weed control at 31 g/ha ([12]; 31 g ai/ha): 5% | pest or weed control at 62 g/ha ([12]; 62 g ai/ha): 5% | pest or weed control at 125 g/ha ([12]; 125 g ai/ha): 5% | plant injury at 31 g/ha ([13]; 31 g ai/ha): 0% | plant injury at 62 g/ha ([13]; 62 g ai/ha): 5% | plant injury at 125 g/ha ([13]; 125 g ai/ha): 5% | pest or weed control at 16 g/ha ([14]; 16 g ai/ha): 0% | pest or weed control at 31 g/ha ([14]; 31 g ai/ha): 0% | pest or weed control at 62 g/ha ([14]; 62 g ai/ha): 0% | pest or weed control at 125 g/ha ([14]; 125 g ai/ha): 10%
